The experiment addresses T1, serotonin transporter (Rattus norvegicus, UniProt P31652).
T1 construct: from tissue; host or cells: frontal cortex membranes of male Sprague-Dawley rats
The experiment can be described thus: Displacement of specifically bound 3H-paroxetine from rat cortical membranes (affinity for the serotonin transporter). It counts as binding. How it is done: The affinity of drugs for the serotonin transporter was determined by assessing the ability of agents to displace specifically bound 3H-paroxetine binding from rat cortical membranes. […] Briefly, frontal cortical membranes prepared from male S.D. rats were incubated with ^3H-paroxetine (0.1 nM) for 60 min at 25°C. All tubes also contained either vehicle, test compound (one to eight concentrations), or a saturating concentration of fluoxetine (10 µM) to define […]. All reactions are terminated by the addition of ice cold Tris buffer followed by rapid filtration using a Tom Tech filtration device to separate bound from free ^3H-paroxetine. […] Nonspecific binding was determined using fluoxetine.

The mark [1] stands for this setting: compounds of formula 1, frontal cortical membranes from male S.D. rats, 3H-paroxetine 0.1 nM, 60 min at 25°C, Ki from IC50 by Cheng and Prusoff, read-out: Inhibition of [3H]-Paroxetine binding Ki.

Where two headings read alike, the source gives them in different places.

T1 sequence (P31652 whole entry): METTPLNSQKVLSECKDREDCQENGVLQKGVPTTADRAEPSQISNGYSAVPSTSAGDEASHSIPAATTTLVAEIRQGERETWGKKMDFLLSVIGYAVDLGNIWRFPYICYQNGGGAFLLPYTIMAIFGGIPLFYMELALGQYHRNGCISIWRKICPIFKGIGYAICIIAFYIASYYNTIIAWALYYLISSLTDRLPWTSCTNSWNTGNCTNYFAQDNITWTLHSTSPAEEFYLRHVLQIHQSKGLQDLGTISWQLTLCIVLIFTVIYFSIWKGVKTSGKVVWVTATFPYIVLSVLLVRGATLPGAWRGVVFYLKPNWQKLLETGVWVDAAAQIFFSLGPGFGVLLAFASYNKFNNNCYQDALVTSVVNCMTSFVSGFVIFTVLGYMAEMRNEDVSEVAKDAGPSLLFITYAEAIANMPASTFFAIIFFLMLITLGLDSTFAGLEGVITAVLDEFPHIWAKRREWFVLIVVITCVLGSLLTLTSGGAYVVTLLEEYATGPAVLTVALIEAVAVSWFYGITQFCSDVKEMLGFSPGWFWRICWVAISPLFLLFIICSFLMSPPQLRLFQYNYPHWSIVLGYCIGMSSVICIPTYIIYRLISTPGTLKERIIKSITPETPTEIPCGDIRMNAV

In general, Ki refers to the equilibrium dissociation constant of an inhibitor or competing ligand from its target. Consider `COc1ccccc1N1CCN(CCN2CC=C(c3c[nH]c4ccccc34)CC2)CC1` [Example 6, 3-(1-{2-[4-(2-methoxyphenyl)piperazin-1-yl]ethyl} 1,2,3,6-tetrahydropyridin-4-yl)-1H-indole], for which the affinity corresponds to a Ki of 10 nM. Regarding `COc1ccccc1N1CCN(CCN2CCC(Cc3c[nH]c4ccc(F)cc34)CC2)CC1` [Example 1, 5-Fluoro-3-(1-{2-[4-(2-methoxyphenyl)piperazin-1-yl]ethyl}piperidin-4-ylmethyl)-1H-indole], under setting [1], the Ki came out at 4.8 nM. The molecule `COc1ccccc1N1CCN(CCN2CC=C(c3c[nH]c4ccc(F)cc34)CC2)CC1` [Example 7, 5-Fluoro-3-(1-{2-[4-(2-methoxyphenyl)piperazin-1-yl]ethyl} 1,2,3,6-tetrahydropyridin-4-yl)-1H-indole] registered a Ki of 19 nM. Turning to `COc1ccccc1N1CCN(CCCN2CCC(Cc3c[nH]c4ccc(F)cc34)CC2)CC1` [Example 3, 5-Fluoro-3-(1-{3-[4-(2-methoxyphenyl)piperazin-1-yl]propyl}piperidin-4-ylmethyl)-1H-indole], under setting [1], the Ki stood at 1.2 nM.

(Values after patent EP1073651B1, “INDOLYL DERIVATIVES AS SEROTONERGIC AGENTS” (Wyeth, priority 1998, dated 1999).)
